# Values joined by “and” are separate entries in the source; they are usually repeats but may differ in a detail not shown here. Identical values can stand only once.
# Columns and labels:
# Brain/CB1 = target: T1, Brain/CB1 (Mus musculus, UniProt P47746); test: Functional GTPγS binding, Brain/CB1; format: biochemical
# T1 construct: from tissue; host or cells: mouse brain membranes
# Excerpt: Furthermore, the intermediates urea compounds 8a-m were chlorinated with phosphorus oxychloride in the presence of DIPEA base to form imidoyl chloride intermediate and reacted with acetamidine hydrochloride/methyl carbamimidothioate iodide/methyl carbamimidoselenoate iodide and other amines to furnish the target compounds (10a-34b) (Scheme 2, FIG. 2, Scheme 5, FIG. 5). The urea derivatives were converted to the thiourea derivatives 9a-9d by employing sodium thiosulfate. Compound 8a-b, 8e-f were converted to corresponding thiourea by employing sodium thiosulfate dissolved in water dioxane mixture and the reaction was heated to 85° C. for 2 h. […] The binding constant for the synthesized compounds were determined by using radioligand binding assay in mouse brain membranes as well as the target compounds were evaluated in vitro at the human CB1 receptor, stably expressed into Chinese hamster ovary (CHO) cells as well as mouse brain membrane CB1.
# CB1 = CB1 (UniProt P21554); test: CB1 radioligand binding assay; set-up: species or system human; settings: read-out: Ki (CB1)
# Description: The target compounds were evaluated in vitro at the human CB1 receptor, stably expressed into Chinese hamster ovary (CHO) cells by utilizing radioligand binding studies.
# The binding constant for the synthesized compounds were determined by using radioligand binding assay in mouse brain membranes as well as the target compounds were evaluated in vitro at the human CB1 receptor, stably expressed into Chinese hamster ovary (CHO) cells as well as mouse brain membrane CB1. […]
# T1 sequence (P47746 whole entry): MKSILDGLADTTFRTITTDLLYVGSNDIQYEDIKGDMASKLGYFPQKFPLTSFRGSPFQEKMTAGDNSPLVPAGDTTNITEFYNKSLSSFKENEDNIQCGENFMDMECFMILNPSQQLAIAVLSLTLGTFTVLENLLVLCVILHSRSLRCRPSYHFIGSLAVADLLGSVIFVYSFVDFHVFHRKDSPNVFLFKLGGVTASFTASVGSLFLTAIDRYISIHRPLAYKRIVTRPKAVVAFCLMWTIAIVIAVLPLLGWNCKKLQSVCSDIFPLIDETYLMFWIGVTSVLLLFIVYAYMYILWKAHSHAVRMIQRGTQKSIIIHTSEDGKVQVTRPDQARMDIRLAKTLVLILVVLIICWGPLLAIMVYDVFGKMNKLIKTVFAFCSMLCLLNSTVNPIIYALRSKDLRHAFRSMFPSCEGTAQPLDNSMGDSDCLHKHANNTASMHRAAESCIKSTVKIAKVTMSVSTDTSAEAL
SMILES,IC50 (Brain/CB1) [nM],Ki (CB1)
"C/C(N)=N\C(=N\S(=O)(=O)c1ccccc1)N1CCC(c2ccccc2)C(c2ccc(Cl)cc2)=N1 (centres unmarked) [Compound 10g, (Z)—N—((E)-1-aminoethylidene)-3-(4-chlorophenyl)-4-phenyl-N′-(phenylsulfonyl)-5,6-dihydropyridazine-1 (4H)-carboximidamide]",357,128 nM and 212 nM
"C/C(N)=N\C(=N\S(=O)(=O)c1ccccc1C(F)(F)F)N1CCC(c2ccccc2)C(c2ccc(Cl)cc2)=N1 (centres unmarked) [Compound 10k, (Z)—N—((E)-1-aminoethylidene)-3-(4-chlorophenyl)-4-phenyl-N′-((2-(trifluoromethyl)phenyl)sulfonyl)-5,6-dihydropyridazine-1 (4H)-carboximidamide]",125,50.6 nM
"C/C(N)=N\C(=N\S(=O)(=O)c1ccc(I)cc1)N1CCC(c2ccccc2)C(c2ccc(Cl)cc2)=N1 (centres unmarked) [Compound 10i, (Z)—N—((E)-1-aminoethylidene)-3-(4-chlorophenyl)-N′-((4-iodophenyl)sulfonyl)-4-phenyl-5,6-dihydropyridazine-1 (4H)-carboximidamide]",118,43 nM
"N/C(=N\C(=N\S(=O)(=O)c1ccc(C(F)(F)F)cc1)N1CCC(c2ccccc2)C(c2ccc(Cl)cc2)=N1)c1ccccc1F (centres unmarked) [Compound 10t, (Z)—N—((Z)-amino (2-fluorophenyl)methylene)-3-(4-chlorophenyl)-4-phenyl-N′-((4-(trifluoromethyl)phenyl)sulfonyl)-5,6-dihydropyridazine-1 (4H)-carboximidamide]",25,7.4 nM
"N/C(=N\C(=N\S(=O)(=O)c1ccc(C(F)(F)F)cc1)N1CCC(c2ccccc2)C(c2ccc(F)cc2)=N1)c1ccc(F)cc1F (centres unmarked) [Compound 10ze, (Z)—N—((Z)-amino (2,4-difluorophenyl)methylene)-3-(4-fluorophenyl)-4-phenyl-N′-((4-(trifluoromethyl)phenyl)sulfonyl)-5,6-dihydropyridazine-1 (4H)-carboximidamide]",450,58.6 nM
"N/C(=N\C(=N\S(=O)(=O)c1ccc(C(F)(F)F)cc1)N1CCC(c2ccccc2)C(c2ccc(F)cc2)=N1)c1ccccc1F (centres unmarked) [Compound 10zd, (Z)—N—((Z)-amino (2-fluorophenyl)methylene)-3-(4-fluorophenyl)-4-phenyl-N′-((4-(trifluoromethyl)phenyl)sulfonyl)-5,6-dihydropyridazine-1 (4H)-carboximidamide]",115,26 nM
"COc1ccc(S(=O)(=O)/N=C(/N=C(\C)N)N2CCC(c3ccccc3)C(c3ccc(Cl)cc3)=N2)cc1 (centres unmarked) [Compound 10h, (Z)—N—((E)-1-aminoethylidene)-3-(4-chlorophenyl)-N′-((4-methoxyphenyl)sulfonyl)-4-phenyl-5,6-dihydropyridazine-1 (4H)-carboximidamide]",357,105 nM
"NC(=O)C(Cc1ccccc1)N/C(=N/S(=O)(=O)c1ccc(C(F)(F)F)cc1)N1CCC(c2ccccc2)C(c2ccc(Cl)cc2)=N1 (single isomer, unassigned) [Compound 33a, (Z)-2-(3-(4-chlorophenyl)-4-phenyl-N′-((4-(trifluoromethyl)phenyl)sulfonyl)-1,4,5,6-tetrahydropyridazine-1-carboximidamido)-3-phenylpropanamide]",423,66.8 nM
"CCC(N/C(=N/S(=O)(=O)c1ccc(C(F)(F)F)cc1)N1CCC(c2ccccc2)C(c2ccc(Cl)cc2)=N1)C(N)=O (single isomer, unassigned) [Compound 32b, (Z)-2-(3-(4-chlorophenyl)-4-phenyl-N′-((4-(trifluoromethyl)phenyl)sulfonyl)-1,4,5,6-tetrahydropyridazine-1-carboximidamido) butanamide]",174,77.4 nM
"CC(C)(C)/C(N)=N/C(=N/S(=O)(=O)c1ccc(C(F)(F)F)cc1)N1CCC(c2ccccc2)C(c2ccc(Cl)cc2)=N1 (single isomer, unassigned) [Compound 10oE2, (Z)—N—((Z)-1-amino-2,2-dimethylpropylidene)-3-(4-chlorophenyl)-4-phenyl-N′-((4-(trifluoromethyl)phenyl)sulfonyl)-5,6-dihydropyridazine-1 (4H)-carboximidamide]",11,7.3 nM
"CC(N/C(=N/S(=O)(=O)c1ccc(C(F)(F)F)cc1)N1CCC(c2ccccc2)C(c2ccc(Cl)cc2)=N1)C(N)=O (single isomer, unassigned) [Compound 31b, (Z)-2-(3-(4-chlorophenyl)-4-phenyl-N′-((4-(trifluoromethyl)phenyl)sulfonyl)-1,4,5,6-tetrahydropyridazine-1-carboximidamido) propenamide]",33,8.05 nM
"COC(=O)CN/C(=N/S(=O)(=O)c1ccc(C(F)(F)F)cc1)N1CCC(c2ccccc2)C(c2ccc(Cl)cc2)=N1 (centres unmarked) [Compound 23, methyl (Z)-((3-(4-chlorophenyl)-4-phenyl-5,6-dihydropyridazin-1 (4H)-yl)(((4-(trifluoromethyl)phenyl)sulfonyl)imino)methyl)glycinate]",8.1,4.37 nM
"C/C(N)=N\C(=N\S(=O)(=O)c1ccc(F)cc1)N1CCC(c2ccccc2)C(c2ccc(Cl)cc2)=N1 (centres unmarked) [Compound 10j, (Z)—N—((E)-1-aminoethylidene)-3-(4-chlorophenyl)-N′-((4-fluorophenyl)sulfonyl)-4-phenyl-5,6-dihydropyridazine-1 (4H)-carboximidamide]",182,59.3 nM
"N/C(=N\C(=N\S(=O)(=O)c1ccc(C(F)(F)F)cc1)N1CCC(c2ccccc2)C(c2ccc(Cl)cc2)=N1)c1ccccc1 (centres unmarked) [Compound 10r, (Z)—N—((Z)-amino (phenyl)methylene)-3-(4-chlorophenyl)-4-phenyl-N′-((4-(trifluoromethyl)phenyl)sulfonyl)-5,6-dihydropyridazine-1 (4H)-carboximidamide]",197,33 nM
"N/C(=N\C(=N\S(=O)(=O)c1ccc(C(F)(F)F)cc1)N1CCC(c2ccccc2)C(c2ccc(Br)cc2)=N1)c1ccccc1F (centres unmarked) [Compound 10z, (Z)—N—((Z)-amino (2-fluorophenyl)methylene)-3-(4-bromophenyl)-4-phenyl-N′-((4-(trifluoromethyl)phenyl)sulfonyl)-5,6-dihydropyridazine-1 (4H)-carboximidamide]",49,8.25 nM
"CC(C)(C)/C(N)=N/C(=N/S(=O)(=O)c1ccc(C(F)(F)F)cc1)N1CCC(c2ccccc2)C(c2ccc(Br)cc2)=N1 (centres unmarked) [Compound 10x, (Z)—N—((Z)-1-amino-2,2-dimethylpropylidene)-3-(4-bromophenyl)-4-phenyl-N′-((4-(trifluoromethyl)phenyl)sulfonyl)-5,6-dihydropyridazine-1 (4H)-carboximidamide]",35,20.3 nM
"COC(=O)C(N/C(=N/S(=O)(=O)c1ccc(C(F)(F)F)cc1)N1CCC(c2ccccc2)C(c2ccc(Cl)cc2)=N1)C(C)C (single isomer, unassigned) [Compound 34a]",41,46.4 nM
"C/C(N)=N\C(=N\S(=O)(=O)c1cccc(C(F)(F)F)c1)N1CCC(c2ccccc2)C(c2ccc(Cl)cc2)=N1 (centres unmarked) [Compound 10c, (Z)—N—((E)-1-aminoethylidene)-3-(4-chlorophenyl)-4-phenyl-N′-((3-(trifluoromethyl)phenyl)sulfonyl)-5,6-dihydropyridazine-1 (4H)-carboximidamide]",105,28.3 nM
"CC(C)(C)/C(N)=N/C(=N/S(=O)(=O)c1ccc(C(F)(F)F)cc1)N1CCC(c2ccccc2)C(c2ccc(Cl)cc2)=N1 (single isomer, unassigned) [Compound 10oE1, (Z)—N—((Z)-1-amino-2,2-dimethylpropylidene)-3-(4-chlorophenyl)-4-phenyl-N′-((4-(trifluoromethyl)phenyl)sulfonyl)-5,6-dihydropyridazine-1 (4H)-carboximidamide]",222,351 nM
"CC(N/C(=N/S(=O)(=O)c1ccc(C(F)(F)F)cc1)N1CCC(c2ccccc2)C(c2ccc(Cl)cc2)=N1)C(N)=O (single isomer, unassigned) [Compound 31a, (Z)-2-(3-(4-chlorophenyl)-4-phenyl-N′-((4-(trifluoromethyl)phenyl)sulfonyl)-1,4,5,6-tetrahydropyridazine-1-carboximidamido) propenamide]",863,96.9 nM
"N#Cc1ccc(S(=O)(=O)/N=C(/N=C2\CCCCN2)N2CCC(c3ccccc3)C(c3ccc(Cl)cc3)=N2)cc1 (centres unmarked) [Compound 13b, (Z)-3-(4-chlorophenyl)-N′-((4-cyanophenyl)sulfonyl)-4-phenyl-N—((E)-piperidin-2-ylidene)-5,6-dihydropyridazine-1 (4H)-carboximidamide]",325,19.8 nM
"NC(=O)C(Cc1ccccc1)N/C(=N/S(=O)(=O)c1ccc(C(F)(F)F)cc1)N1CCC(c2ccccc2)C(c2ccc(Cl)cc2)=N1 (single isomer, unassigned) [Compound 33b, (Z)-2-(3-(4-chlorophenyl)-4-phenyl-N′-((4-(trifluoromethyl)phenyl)sulfonyl)-1,4,5,6-tetrahydropyridazine-1-carboximidamido)-3-phenylpropanamide]",12,6.13 nM

# Reference: patent US20250197359A1, “CANNABINOID RECEPTOR MODULATING COMPOUNDS” (The U.S.A., as Represented by the Secretary, Department of …, priority 2022, published 2025)
